Data: patent publication US8507475B2, “Substituted heteroarylamide diazepinopyrimidone derivatives” (Sanofi, priority 2008, dated 2013)
pIC50: −log10 of the molar value. Structures can show the parent of a compound that is named as a salt.

Experiments:
GSK3β = GSK3β (Homo sapiens, UniProt P49841); assay: Inhibitory activity against GSK3β (33P-ATP phosphorylation of prephosphorylated GS1 peptide); format: biochemical; details: protocol 4: commercial GSK3beta (Millipore), 7.5 μM GS1 peptide, 10 μM ATP, 50 mM Hepes pH 7.2, 90 minutes at room temperature
GSK3β, sequence (P49841 whole entry): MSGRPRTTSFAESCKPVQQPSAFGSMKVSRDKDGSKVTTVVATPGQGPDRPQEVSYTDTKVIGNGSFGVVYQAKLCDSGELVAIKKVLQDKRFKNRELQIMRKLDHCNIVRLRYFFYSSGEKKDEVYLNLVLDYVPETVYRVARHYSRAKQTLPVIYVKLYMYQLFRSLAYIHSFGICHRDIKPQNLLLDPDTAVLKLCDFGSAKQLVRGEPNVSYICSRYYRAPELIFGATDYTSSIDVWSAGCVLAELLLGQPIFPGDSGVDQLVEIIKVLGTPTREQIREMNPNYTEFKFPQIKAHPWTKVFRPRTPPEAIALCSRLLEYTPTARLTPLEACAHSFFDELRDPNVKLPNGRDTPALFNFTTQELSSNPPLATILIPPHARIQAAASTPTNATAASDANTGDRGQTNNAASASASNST
Procedure: Four different protocols can be used. In a first protocol: 7.5 μM of prephosphorylated GS1 peptide and 10 μM ATP (containing 300,000 cpm of ^33P-ATP) were incubated in 25 mM Tris-HCl, pH 7.5, 0.6 mM DTT, 6 mM MgCl2, 0.6 mM EGTA, 0.05 mg/ml BSA buffer for 1 hour at room temperature in the presence of GSK3beta (total reaction volume: 100 microliters). In a second protocol: 4.1 μM of prephosphorylated GS1 peptide and 42 μM ATP (containing 260,000 cpm ^33P-ATP) were incubated in 80 mM Mes-NaOH, pH 6.5, 1 mM Mg acetate, 0.5 mM EGTA, 5 mM 2-mercaptoethanol, 0.02% Tween 20, 10% glycerol buffer for 2 hours at room temperature in the presence of GSK3beta. In a third protocol: 7.5 μM of prephosphorylated GS1 peptide and 10 μM ATP (containing 300,000 cpm of ^33P-ATP) were incubated in 50 mM Hepes, pH 7.2, 1 mM DTT, 1 mM MgCl2, 1 mM EGTA, 0.01% Tween 20 buffer for one hour at room temperature in the presence of GSK3beta (total reaction volume: 100 microliters). In a fourth protocol: 7.5 μM of prephosphorylated GS1 peptide and 10 μM ATP (containing 300,000 cpm of ^33P-ATP) were incubated in 50 mM Hepes, pH 7.2, 1 mM DTT, 1 mM MgCl2, 1 mM EGTA, 0.01% Tween 20 buffer for 90 minutes at room temperature in the presence of commercial GSK3beta (Millipore) (total reaction volume: 100 microliters). Inhibitors were solubilised in DMSO (final solvent concentration in the reaction medium, 1%). The reaction was stopped with 100 microliters of a solution made of 25 g polyphosphoric acid (85% P2O5), 126 ml 85% H3PO4, H2O to 500 ml and then diluted to 1:100 before use. An aliquot of the reaction mixture was then transferred to Whatman P81 cation exchange filters and rinsed with the solution described above. Incorporated ^33P radioactivity was determined by liquid scintillation spectrometry. The phosphorylated GS-1 peptide had the following sequence: NH2-[…](P)EDEE-COOH. (Woodgett, J. R. (1989) Analytical Biochemistry 180, 237-241.

melting point [°C] | pIC50 (GSK3β) | SMILES
232 to 234 | – | O=C(NC1CNCCn2c1nc(-c1ccncc1)cc2=O)c1cc(F)cc2c1OCOC2 (racemic) (as salt: HCl) [Compound No. 26, (+/−)-6-Fluoro-4H-benzo[1,3]dioxine-8-carboxylic acid (4-oxo-2-pyridin-4-yl-4,5,6,7,8,9-hexahydro-1,4a,7-triaza-benzocyclohepten-9-yl)-amide]
284 to 286 | 7.14 | CCOC(=O)N1CCn2c(nc(-c3ccncn3)cc2=O)C(NC(=O)c2ccc3ncccc3n2)C1 (racemic) [Compound No. 1, (+/−)-9-[([1,5]Naphthyridine-2-carbonyl)-amino]-4-oxo-2-pyrimidin-4-yl-5,6,8,9-tetrahydro-4H-1,4a,7-triaza-benzocycloheptene-7-carboxylic acid ethyl ester]
– | 7.92 | O=C(NC1CNCCn2c1nc(-c1ccncc1)cc2=O)c1cc(F)cc2c1OCOC2 (racemic) [Compound No. 26, (+/−)-6-Fluoro-4H-benzo[1,3]dioxine-8-carboxylic acid (4-oxo-2-pyridin-4-yl-4,5,6,7,8,9-hexahydro-1,4a,7-triaza-benzocyclohepten-9-yl)-amide]
284 to 286 | 6.96 | CCOC(=O)N1CCn2c(nc(-c3ccncc3)cc2=O)C(NC(=O)c2cccc3c2OCC3)C1 (racemic) [compound 8, (+/−)-9-[(2,3-Dihydro-benzofuran-7-carbonyl)-amino]-4-oxo-2-pyridin-4-yl-5,6,8,9-tetrahydro-4H-1,4-a,7-thaza-benzocycloheptene-7-carboxylic acid ethyl ester]
169 to 171 | 7.33 | CN1CCn2c(nc(-c3ccncn3)cc2=O)C(NC(=O)c2cc(Cl)c(N)c3c2OCCO3)C1 (racemic) [compound 22, (+/−)-8-Amino-7-chloro-2,3-dihydro-benzo[1,4]dioxine-5-carboxylic acid (7-methyl-4-oxo-2-pyrimidin-4-yl-4,5,6,7,8,9-hexahydro-1,4a,7-triaza-benzocyclohepten-9-yl)-amide]
